Test results from ChEMBL document CHEMBL5303573, “Mapping human microbiome drug metabolism by gut bacteria and their genes” (Nature, 2019).

Assays:
[1] = The drug is tested on Parabacteroides merdae strain: ATCC43184 for biotransformation. The drug concentrations were measured before and after a 12-h incubation by liquid-chromatography-coupled mass spectrometry (LC–MS); conditions: 2 µM
[2] = The drug is tested on Bacteroides coprophilus strain: DSM18228 for biotransformation. The drug concentrations were measured before and after a 12-h incubation by liquid-chromatography-coupled mass spectrometry (LC–MS); conditions: 2 µM
[3] = The drug is tested on Clostridium scindens strain: ATCC35704 for biotransformation. The drug concentrations were measured before and after a 12-h incubation by liquid-chromatography-coupled mass spectrometry (LC–MS); conditions: 2 µM
[4] = The drug is tested on Bacteroides uniformis strain: ATCC8492 for biotransformation. The drug concentrations were measured before and after a 12-h incubation by liquid-chromatography-coupled mass spectrometry (LC–MS); conditions: 2 µM
[5] = The drug is tested on Blautia hansenii strain: DSM20583 for biotransformation. The drug concentrations were measured before and after a 12-h incubation by liquid-chromatography-coupled mass spectrometry (LC–MS); conditions: 2 µM
[6] = The drug is tested on Clostridium sporogenes strain: ATCC15579 for biotransformation. The drug concentrations were measured before and after a 12-h incubation by liquid-chromatography-coupled mass spectrometry (LC–MS); conditions: 2 µM
[7] = The drug is tested on Clostridium ramosum strain: DSM1402 for biotransformation. The drug concentrations were measured before and after a 12-h incubation by liquid-chromatography-coupled mass spectrometry (LC–MS); conditions: thomasclavelia ramosa, 2 µM
[8] = The drug is tested on Providencia rettgeri strain: DSM1131 for biotransformation. The drug concentrations were measured before and after a 12-h incubation by liquid-chromatography-coupled mass spectrometry (LC–MS); type: ADME; set-up: dose 2 uM, timepoint 0 vs 12 hours; conditions: 2 µM
[9] = roseburia intestinalis, 12 h, 2 µM
Description: The drug is tested on Roseburia intestinalis strain: L1-82 for biotransformation. The drug concentrations were measured before and after a 12-h incubation by liquid-chromatography-coupled mass spectrometry (LC–MS)

[10] = The drug is tested on Bacteroides xylanisolvens strain: DSM18836 for biotransformation. The drug concentrations were measured before and after a 12-h incubation by liquid-chromatography-coupled mass spectrometry (LC–MS); conditions: 2 µM
[11] = limosilactobacillus reuteri cf48-3a, 12 h, 2 µM
Description: The drug is tested on Lactobacillus reuteri CF48-3A strain: BEI HM-102 for biotransformation. The drug concentrations were measured before and after a 12-h incubation by liquid-chromatography-coupled mass spectrometry (LC–MS)

[12] = The drug is tested on Coprococcus comes strain: ATCC27758 for biotransformation. The drug concentrations were measured before and after a 12-h incubation by liquid-chromatography-coupled mass spectrometry (LC–MS); type: ADME; set-up: dose 2 uM, timepoint 0 vs 12 hours; conditions: 2 µM
[13] = bacteroides thetaiotaomicron, 12 h, 2 µM
Description: The drug is tested on Bacteroides thetaiotaomicron strain: 3731 for biotransformation. The drug concentrations were measured before and after a 12-h incubation by liquid-chromatography-coupled mass spectrometry (LC–MS)

[14] = The drug is tested on Bifidobacterium breve strain: DSM20213 for biotransformation. The drug concentrations were measured before and after a 12-h incubation by liquid-chromatography-coupled mass spectrometry (LC–MS); conditions: 2 µM
[15] = The drug is tested on Enterococcus faecalis strain: V583 for biotransformation. The drug concentrations were measured before and after a 12-h incubation by liquid-chromatography-coupled mass spectrometry (LC–MS); conditions: 2 µM
[16] = bacteroides thetaiotaomicron, 12 h, 2 µM; remark: listed apart in the source
Description: The drug is tested on Bacteroides thetaiotaomicron strain: 7330 for biotransformation. The drug concentrations were measured before and after a 12-h incubation by liquid-chromatography-coupled mass spectrometry (LC–MS)

[17] = bacteroides intestinalis, 12 h, 2 µM
Description: The drug is tested on Bacteroides intestinalis strain: DSM17393 for biotransformation. The drug concentrations were measured before and after a 12-h incubation by liquid-chromatography-coupled mass spectrometry (LC–MS)

[18] = The drug is tested on Anaerotruncus colihominis strain: DSM17241 for biotransformation. The drug concentrations were measured before and after a 12-h incubation by liquid-chromatography-coupled mass spectrometry (LC–MS); conditions: 2 µM
[19] = The drug is tested on Bacteroides fragilis strain: HMW610 for biotransformation. The drug concentrations were measured before and after a 12-h incubation by liquid-chromatography-coupled mass spectrometry (LC–MS); conditions: 2 µM
[20] = The drug is tested on Bacteroides fragilis strain: HMW615 for biotransformation. The drug concentrations were measured before and after a 12-h incubation by liquid-chromatography-coupled mass spectrometry (LC–MS); conditions: 2 µM

SMILES	Bacterial Biotransformation [1]	Bacterial Biotransformation [2]	Bacterial Biotransformation [3]	Bacterial Biotransformation [4]	Bacterial Biotransformation [5]	Bacterial Biotransformation [6]	Bacterial Biotransformation [7]	Bacterial Biotransformation [8]	Bacterial Biotransformation [9]	Bacterial Biotransformation [10]	Bacterial Biotransformation [11]	Bacterial Biotransformation [12]	Bacterial Biotransformation [13]	Bacterial Biotransformation [14]	Bacterial Biotransformation [15]	Bacterial Biotransformation [16]	Bacterial Biotransformation [17]	Bacterial Biotransformation [18]	Bacterial Biotransformation [19]	Bacterial Biotransformation [20]
COc1ccc(CN2CCNCC2)c(OC)c1OC.Cl.Cl [TRIMETAZIDINE DIHYDROCHLORIDE]	Compound metabolized	Compound metabolized	Compound NOT metabolized	Compound metabolized	Compound NOT metabolized	Compound NOT metabolized	Compound NOT metabolized	Compound metabolized	Compound NOT metabolized	Compound metabolized	Compound NOT metabolized	Compound NOT metabolized	Compound metabolized	Compound NOT metabolized	Compound NOT metabolized	Compound metabolized	Compound metabolized	Compound NOT metabolized		
COc1cc2nc(N3CCN(C(=O)C4CCCO4)CC3)nc(N)c2cc1OC (stereo unspecified) [TERAZOSIN]	Compound NOT metabolized	Compound NOT metabolized		Compound NOT metabolized	Compound NOT metabolized	Compound NOT metabolized		Compound NOT metabolized	Compound NOT metabolized	Compound NOT metabolized	Compound NOT metabolized	Compound NOT metabolized	Compound NOT metabolized	Compound NOT metabolized	Compound NOT metabolized	Compound NOT metabolized	Compound NOT metabolized	Compound NOT metabolized	Compound NOT metabolized	Compound NOT metabolized
CC(C)c1nc(CN(C)C(=O)N[C@H](C(=O)N[C@@H](Cc2ccccc2)C[C@H](O)[C@H](Cc2ccccc2)NC(=O)OCc2cncs2)C(C)C)cs1 [RITONAVIR]	Compound NOT metabolized	Compound NOT metabolized	Compound NOT metabolized	Compound metabolized	Compound metabolized	Compound NOT metabolized	Compound NOT metabolized	Compound NOT metabolized	Compound NOT metabolized	Compound metabolized	Compound NOT metabolized		Compound NOT metabolized	Compound NOT metabolized	Compound NOT metabolized	Compound NOT metabolized		Compound NOT metabolized		
CCOc1ccc(NC(C)=O)cc1 [PHENACETIN]	Compound NOT metabolized	Compound NOT metabolized	Compound NOT metabolized	Compound NOT metabolized	Compound NOT metabolized	Compound NOT metabolized		Compound NOT metabolized	Compound NOT metabolized	Compound NOT metabolized	Compound NOT metabolized	Compound NOT metabolized	Compound NOT metabolized	Compound NOT metabolized	Compound NOT metabolized	Compound NOT metabolized	Compound NOT metabolized	Compound NOT metabolized	Compound NOT metabolized	Compound NOT metabolized
